Measurements: paper PMC12406203 (Journal of Medicinal Chemistry, 2025)
Where “and” joins values, the source holds several entries; their conditions need not be identical. Equal entries are not always repeated.

Experiments:
hAChE = hAChE (Homo sapiens, UniProt P22303); details: for AChE inhibition: at a concentration of 100 μM; for hAChE RA at 100 μM: residual activity at 100 μM, mean ± SD, one experiment in triplicate
Description: The inhibitory potencies of the compounds against the ChEs were determined using the method of Ellman. […] The final content of DMSO was always 1% [v/v]. […] The initial velocities in the presence (v i ) and absence (v 0) of the test compounds were calculated. The inhibitory potencies were expressed as the residual activities, according to RA = (v i – b)/(v 0 – b), where b is the blank value using phosphate buffer without ChEs. For IC50 determinations, at least seven different concentrations for each compound were used. The IC50 values were obtained by plotting the residual ChE activities against the applied inhibitor concentrations, with the experimental data fitted to a four-parameter logistic function (GraphPad Prism 10.0).

Log D determination = type: physicochemical; details: pH 7.4, n-octanol/PBS
Description: Calibration curves for phosphate-buffered saline (PBS) (pH = 7.4) and octanol were prepared (0.05–5 μM). The buffer and n-octanol phases were shaken, using phosphate buffer (pH = 7.4). The phase ratios of buffer to n-octanol were 1:1 (0.8 mL octanol:0.8 mL PBS) and 1:3 (0.4 mL octanol:1.2 mL PBS). Octanol was then pipetted into a HPLC vial, followed by the addition of 1.6 μL of a 10 mM stock DMSO solution and the buffer. The vial was mixed with a vortex mixer and shaken for 3 h in the dark at 23 °C. Subsequently, the aqueous and organic phases were sampled with a syringe into a new HPLC vial, and the samples were analyzed using UHPLC/DAD.

[1] = Pharmacokinetic study in mice; details: for Cmax / MRT / Tmax / k el / Kp / AUC / AUC(0-t) / CL/F / Vd/F: male, CD-1, mouse, ip, 10 mg/kg; for Kp: brain/serum
Description: In this study, male CD-1 mice weighing 27–34 g housed in conditions of constant temperature with a 12:12 h light-dark cycle with free access to food and water were used. Both tested and reference compounds were suspended in 1% Tween in water for injection (Polpharma, Poland) and administered intraperitoneally (i.p.). The mice were sacrificed by decapitation under isoflurane anesthesia at different time points following compound administration. Brains were harvested at the same time points. Blood was allowed to clot at room temperature for 20 min, and serum was separated by centrifugation at 8 000g (Eppendorf MiniSpin centrifuge, Germany) for 10 min. All samples were stored at −80 °C until analysis.
The analytical workflow employed a Sciex QTRAP 4500 triple quadrupole mass spectrometer interfaced with an Exion LC AC HPLC system (Danaher Corporation, USA). Chromatographic separation was achieved on an XBridge C18 column (3 × 50 mm, 5 μm; Waters, USA), utilizing a mobile phase composed of acetonitrile and water both containing 0.1% formic acid. The column temperature was maintained at 40 °C, and a gradient elution protocol (Table S10) was implemented to ensure optimal analyte resolution and retention times. Mass spectrometric detection was conducted in unit resolution mode, with ion transitions specified in Table S11. […] Valsartan served as the internal standard and was monitored at m/z 436 → 207 (collision energy = 42 eV). Positive electrospray ionization (ESI+) was employed to enhance detection sensitivity. Ion path parameters (Table S11) were optimized via direct infusion of analyte solutions (7 μL/min) using a syringe pump. The optimized source conditions included an ion spray voltage of 5500 V, a source temperature of 450 °C, curtain gas pressure at 20 psi, and medium collision gas pressure. […] No significant matrix effects or stability concerns were observed during routine sample analysis. Data acquisition and processing were carried out using Analyst software version 1.7.
Serial dilutions were performed to generate working solutions ranging from 0.01 to 20 μg/mL, corresponding to final calibration concentrations of 0.001–2 μg/mL. For calibration curve construction, 5 μL of each working solution was spiked into 45 μL of the relevant biological matrix (serum or brain homogenate) and vortexed for 10 s. Sample preparation involved protein precipitation, in a 1:3 (v/v) ratio, using acetonitrile containing 0.1% formic acid and the internal standard. The mixtures were agitated for 10 min using an IKA Vibrax VXR shaker (Germany), followed by centrifugation at 8000 × g for 5 min (Eppendorf miniSpin, Germany). The resulting supernatants were transferred to chromatographic vials for analysis.
Brain tissues were homogenized in distilled water at a 1:4 (w/v) ratio using an ULTRA-TURRAX T10 basic homogenizer (IKA, Germany). Aliquots of brain homogenate or serum (50 μL) were subjected to protein precipitation in a 1:3 (v/v) ratio with acetonitrile containing 0.1% formic acid and the internal standard. The mixtures were agitated for 10 min using an IKA Vibrax VXR shaker (Germany), followed by centrifugation at 8000 × g for 5 min (Eppendorf miniSpin, Germany). The resulting supernatants were directly transferred to chromatographic vials for analysis. In cases where analyte concentrations in serum exceeded 20 μg/mL, samples were diluted with blank matrix prior to the deproteinization step. The autosampler was maintained at 15 °C, and a 1 μL aliquot was injected onto the analytical column.
Pharmacokinetic parameters were estimated using the noncompartmental analysis (NCA). The maximum concentration (C max) and the time to reach maximum concentration (t max) in serum and brain were obtained directly from the concentration versus time data.

[2] = tested on: TYK2(JH1domain-catalytic)
BV2 cells = assay: MTS metabolic activity (cytotoxicity); type: cell-based, murine; details: BV2, MTS assay, 24 h, concentrations of 5 μM or less
Description: The human hepatocellular carcinoma HepG2 and human neuroblastoma SH-SY5Y cell lines were purchased from American Type Culture Collection (Manassas, VA, USA). The murine microglia BV2 cells were a generous gift from Dr. Biljana Božić Nedeljković (University of Belgrade, Belgrade, Serbia). Cells were cultured in Advanced Dulbecco’s modified Eagle’s medium (Gibco, Thermo Fisher Scientific, Waltham, MA, USA) supplemented with 10% fetal bovine serum (FBS, Gibco), 2 mM L-glutamine, 50 U/mL penicillin and 50 μg/mL streptomycin (Sigma, St. Louis, MO, USA) in a humidified atmosphere of 95% air and 5% CO2 at 37 °C, and grown to 80% confluence. Prior to cell treatment, complete medium was replaced with serum-free medium. […]
BV2 cells (5 × 10^3/well) and HepG2 and SH-SY5Y cells (1 × 10^4/well) were seeded in 96-well plates and assessed by MTS ([3-(4,5-dimethylthiazol-2-yl)-5-(3-carboxymethoxyphenyl)-2-(4-sulfophenyl)-2H tetrazolium, inner salt) assay for their response to compounds 94 and 95. Cells were treated with increasing concentrations of compounds (1–100 μM) in serum-free medium, and metabolic activity was assessed after 24 h using the CellTiter 96 Aqueous One Solution Cell Proliferation Assay (Promega, Madison, WI, USA), in accordance with the manufacturer’s instructions. Absorbance was measured with an automatic microplate reader (Tecan Safire^2, Switzerland) at a wavelength of 492 nm. […]

Sequence of hAChE (P22303 32-614): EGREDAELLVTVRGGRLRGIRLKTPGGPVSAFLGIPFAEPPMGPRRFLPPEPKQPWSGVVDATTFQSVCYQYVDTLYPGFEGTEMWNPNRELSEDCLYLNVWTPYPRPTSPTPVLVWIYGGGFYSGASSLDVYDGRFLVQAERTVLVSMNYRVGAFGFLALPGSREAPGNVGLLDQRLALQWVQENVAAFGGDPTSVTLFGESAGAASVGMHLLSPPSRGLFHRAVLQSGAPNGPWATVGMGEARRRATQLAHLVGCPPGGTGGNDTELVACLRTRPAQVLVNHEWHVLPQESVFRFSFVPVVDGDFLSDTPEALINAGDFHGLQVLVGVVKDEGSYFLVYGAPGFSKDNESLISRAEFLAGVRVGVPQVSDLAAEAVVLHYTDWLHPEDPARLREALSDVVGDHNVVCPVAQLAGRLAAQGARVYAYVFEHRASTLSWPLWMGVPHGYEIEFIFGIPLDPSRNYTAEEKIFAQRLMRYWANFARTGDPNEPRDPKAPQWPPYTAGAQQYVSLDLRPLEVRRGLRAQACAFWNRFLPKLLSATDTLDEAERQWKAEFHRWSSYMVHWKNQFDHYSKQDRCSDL

Compound `CC(C)Cn1ncc2cc(Cc3ccc(F)cc3F)c(C(=O)NCCN(C)C)cc21` [Compound 94, 5-(2,4-Difluorobenzyl)-N-(2-(dimethylamino)ethyl)-1-isobutyl-1H-indazole-6-carboxamide] has an RA @ 1000nM (p38α) of 2.3%, an RA @ 10000nM (p38α) of 0.4% and an RA @ 1000nM (MLK1) of 100%. For the same compound, the RA @ 10000nM (MLK1) was 100%, the RA @ 1000nM (BRAF) was 100% and the RA @ 10000nM (BRAF) was 100%. The AChE inhibition (hAChE) was “did not inhibit AChE”, the “hAChE RA at 100 μM” value (hAChE) was 69.0% and 69 ± 4% and the “measured log D at pH 7.4” value (Log D determination) was 2.13. It also gave an RA @ 1000nM (PAK1) of 96%, an RA @ 10000nM (PAK1) of 94% and an RA @ 1000nM (BMPR2) of 86%. For the same compound, the RA @ 10000nM (BMPR2) was 95%, the RA @ 1000nM (PIM1) was 95% and the RA @ 10000nM (PIM1) was 100%. The RA @ 1000nM (IKKβ) was 89%, the RA @ 10000nM (IKKβ) was 89% and the RA @ 1000nM (CDK11) was 100%. For the same compound, the RA @ 10000nM (CDK11) was 89%, the “elimination half-life in brain compared to serum” value ([1]; 10 mg/kg i.p., mice) was “over 2 fold” and the “AUC0‑∞” value ([1]; brain, 10 mg/kg i.p., mice) was 50863.30 ng·min/mL(g). The “AUC0–t” value ([1]; brain, 10 mg/kg i.p., mice) was 48459.19 ng·min/mL(g), the t0.5λz ([1]; brain, 10 mg/kg i.p., mice) was 210.94 min and the Cmax ([1]; brain) was 658 ng/g. For the same compound, the MRT ([1]; brain) was 102 min, the Tmax ([1]; brain) was 15 min and the k el ([1]; brain) was 5.5e-05 s⁻¹. For the same compound, the Kp [1] was 1.58, the AUC ([1]; serum) was 536 ng·h/mL and the AUC(0-t) ([1]; serum) was 532 ng·h/mL. It also gave a CL/F ([1]; serum) of 310 mL/min/kg, a Cmax ([1]; serum) of 946 ng/mL and an MRT ([1]; serum) of 53.8 min. The Tmax ([1]; serum) was 5 min, the Vd/F ([1]; serum) was 46 L/kg and the k el ([1]; serum) was 0.000112 s⁻¹. For the same compound, the “AUC0–t ratio compound 94 to compound 95” value ([1]; serum, 10 mg/kg i.p., mice) was 0.53, the t0.5λz ([1]; serum, 10 mg/kg i.p., mice) was 102.50 min and the RA @ 1000nM (PIM3) was 100%. The RA @ 10000nM (PIM3) was 100%, the RA @ 1000nM (CDK3) was 100% and the RA @ 10000nM (CDK3) was 1.3%. For the same compound, the RA @ 1000nM (AKT2) was 89%, the RA @ 10000nM (AKT2) was 76% and the RA @ 1000nM (MKNK2) was 76%. It also gave an RA @ 10000nM (MKNK2) of 80%, an RA @ 1000nM (ERK1) of 87% and an RA @ 10000nM (ERK1) of 87%. For the same compound, the RA @ 1000nM [2] was 78%, the RA @ 10000nM [2] was 79% and the RA @ 1000nM (PCTK1) was 96%. For the same compound, the RA @ 10000nM (PCTK1) was 92%, the RA @ 1000nM (ERBB2) was 74% and the RA @ 10000nM (ERBB2) was 81%. For the same compound, the RA @ 1000nM (AXL) was 97%, the RA @ 10000nM (AXL) was 89% and the RA @ 1000nM (CHEK1) was 100%. For the same compound, the RA @ 10000nM (CHEK1) was 100%, the RA @ 1000nM (VEGFR2) was 100% and the RA @ 10000nM (VEGFR2) was 100%. The RA @ 1000nM (DCAMKL1) was 100%, the RA @ 10000nM (DCAMKL1) was 100% and the RA @ 1000nM (YANK3) was 100%. The RA @ 10000nM (YANK3) was 100%, the RA @ 1000nM (PKACα) was 100% and the RA @ 10000nM (PKACα) was 96%. It also gave an RA @ 1000nM (PDPK1) of 88%, an RA @ 10000nM (PDPK1) of 74% and an RA @ 1000nM (IKKα) of 82%. The RA @ 10000nM (IKKα) was 87%, the RA @ 1000nM (ADCK3) was 100% and the RA @ 10000nM (ADCK3) was 100%. For the same compound, the RA @ 1000nM (MKNK1) was 100%, the RA @ 10000nM (MKNK1) was 100% and the RA @ 1000nM (JNK3) was 55%. For the same compound, the RA @ 10000nM (JNK3) was 6.8%, the RA @ 1000nM (JNK1) was 77% and the RA @ 10000nM (JNK1) was 41%. For the same compound, the cell viability (BV2 cells) was “did not affect cell viability”.

`CN(C)CCNC(=O)c1cc2c(cnn2CC2CCCCC2)cc1Cc1ccc(F)cc1F` [Compound 95, 1-(Cyclohexylmethyl)-5-(2,4-difluorobenzyl)-N-(2-(dimethylamino)ethyl)-1H-indazole-6-carboxamide] gave an RA @ 1000nM (p38α) of 6.7%, an RA @ 10000nM (p38α) of 0.1% and an RA @ 1000nM (MLK1) of 100%. It also gave an RA @ 10000nM (MLK1) of 90%, an RA @ 1000nM (BRAF) of 100% and an RA @ 10000nM (BRAF) of 100%. The AChE inhibition (hAChE) was “did not inhibit AChE”, the “hAChE RA at 100 μM” value (hAChE) was 53.4% and 53 ± 1% and 53.4 ± 0.8% and the “measured log D at pH 7.4” value (Log D determination) was 2.77. For the same compound, the RA @ 1000nM (PAK1) was 100%, the RA @ 10000nM (PAK1) was 93% and the RA @ 1000nM (BMPR2) was 89%. For the same compound, the RA @ 10000nM (BMPR2) was 92%, the RA @ 1000nM (PIM1) was 100% and the RA @ 10000nM (PIM1) was 94%. The RA @ 1000nM (IKKβ) was 93%, the RA @ 10000nM (IKKβ) was 80% and the RA @ 1000nM (CDK11) was 92%. The RA @ 10000nM (CDK11) was 100%, the “AUC0‑∞” value ([1]; brain, 10 mg/kg i.p., mice) was 51082.15 ng·min/mL(g) and the “AUC0–t” value ([1]; brain, 10 mg/kg i.p., mice) was 49811.92 ng·min/mL(g). For the same compound, the t0.5λz ([1]; brain, 10 mg/kg i.p., mice) was 89.51 min, the Cmax ([1]; brain) was 343 ng/g and the MRT ([1]; brain) was 128 min. For the same compound, the Tmax ([1]; brain) was 15 min, the k el ([1]; brain) was 0.000128 s⁻¹ and the Kp [1] was 0.83. The AUC ([1]; serum) was 1030 ng·h/mL, the AUC(0-t) ([1]; serum) was 999 ng·h/mL and the CL/F ([1]; serum) was 160 mL/min/kg. For the same compound, the Cmax ([1]; serum) was 617 ng/mL, the MRT ([1]; serum) was 118 min and the Tmax ([1]; serum) was 15 min. The Vd/F ([1]; serum) was 23.4 L/kg, the k el ([1]; serum) was 0.000115 s⁻¹ and the t0.5λz ([1]; serum, 10 mg/kg i.p., mice) was 100.15 min. For the same compound, the RA @ 1000nM (PIM3) was 100%, the RA @ 10000nM (PIM3) was 100% and the RA @ 1000nM (CDK3) was 100%. For the same compound, the RA @ 10000nM (CDK3) was 100%, the RA @ 1000nM (AKT2) was 100% and the RA @ 10000nM (AKT2) was 88%. It also gave an RA @ 1000nM (MKNK2) of 81%, an RA @ 10000nM (MKNK2) of 67% and an RA @ 1000nM (ERK1) of 96%. For the same compound, the RA @ 10000nM (ERK1) was 90%, the RA @ 1000nM [2] was 89% and the RA @ 10000nM [2] was 75%. It also gave an RA @ 1000nM (PCTK1) of 87%, an RA @ 10000nM (PCTK1) of 79% and an RA @ 1000nM (ERBB2) of 84%. The RA @ 10000nM (ERBB2) was 78%, the RA @ 1000nM (AXL) was 84% and the RA @ 10000nM (AXL) was 83%. For the same compound, the RA @ 1000nM (CHEK1) was 100%, the RA @ 10000nM (CHEK1) was 100% and the RA @ 1000nM (VEGFR2) was 100%. The RA @ 10000nM (VEGFR2) was 100%, the RA @ 1000nM (DCAMKL1) was 100% and the RA @ 10000nM (DCAMKL1) was 100%. The RA @ 1000nM (YANK3) was 100%, the RA @ 10000nM (YANK3) was 100% and the RA @ 1000nM (PKACα) was 100%. It also gave an RA @ 10000nM (PKACα) of 94%, an RA @ 1000nM (PDPK1) of 100% and an RA @ 10000nM (PDPK1) of 87%. It also gave an RA @ 1000nM (IKKα) of 92%, an RA @ 10000nM (IKKα) of 75% and an RA @ 1000nM (ADCK3) of 100%. The RA @ 10000nM (ADCK3) was 81%, the RA @ 1000nM (MKNK1) was 100% and the RA @ 10000nM (MKNK1) was 100%. It also gave an RA @ 1000nM (JNK3) of 48%, an RA @ 10000nM (JNK3) of 3.7% and an RA @ 1000nM (JNK1) of 100%. For the same compound, the RA @ 10000nM (JNK1) was 27% and the cell viability (BV2 cells) was “did not affect cell viability”.
